Measurements taken from patent publication US9492499B2, “Peptides having anti-inflammatory properties” (Riptide Bioscience, Inc., priority 2014, dated 2016).
Entries after “also recorded” stand apart in the source; their conditions may differ. No end group written: not given here.

Legend:
[1] = Tumor growth, MCF-7 non-metastatic breast cancer model in athymic nude mice; assay type: in vivo, mouse
Protocol: The polypeptides of the invention were also tested for their effect on tumor growth in a mouse model of non-metastatic breast cancer. MCF-7 human non-metastatic breast cancer cells were cultured at 37° C., 5% CO2 in normal growth media. Cells were harvested at 80% to 90% confluence. Immune compromised athymic nude mice (J:NU) were divided into 2 groups (9 animals per group). All mice were injected with ˜4.5×10^6 MCF-7 cells which had been stained with VIVO Tracker 680 and suspended in 200 μl of PBS/Matrigel mixture. Cells were injected subcutaneously on the dorsal surface of treated animals using a 22 gauge needle fitted with a 500 μl syringe.
Animals were designated vehicle and peptide treated. The peptide treated animals were treated with the RP-397 polypeptide (SEQ ID NO: 194). Freshly prepared RP-397 peptide was dissolved in sterile saline at a concentration of 100 μM and was used to treat the animals in the peptide group. Vehicle treated animals were injected with saline buffer alone. All treatments were injected into the tumor mass two times weekly for 5 weeks using a 27½ gauge needle fitted with a 1 ml syringe. Animal weights and tumor volumes were measured 3 times weekly and the fluorescence labeling was followed by VIVO Tracker 680 and IVIS Imaging.

NF-kB = NF-kB activity in 3T3-L1 preadipocyte Nfkb-RE/GFP reporter cells; assay type: cell-based; settings: 0.01 μM peptide, lipopolysaccharide 20 ng/ml, GFP fluorescence
Protocol: NF-kB activity was monitored using the a 3T3-L1 preadipocyte cell line stably transformed with a Nfkb-RE/GFP construct, as described in Shen et al. (2013), “Adipocyte reporter assays: Application for identification of anti-inflammatory and antioxidant properties of mangosteen xanthones,” Mol. Nutr. Food Res. 00:1-9, the entire contents of which are incorporated herein by reference. NF-kB expressing adipocyte reporter cells were plated in DMEM in wells of a 24-well plate, at a seeding density of 5×10^4. On the second and third days post-plating, test peptides were individually added to the wells to a final concentration of 0.01 μM. The test peptides included RP-398 (SEQ ID NO: 155), and RP-185 (SEQ ID NO: 123). On day 4 post-plating, lipopolysaccharide was added to the medium to a final concentration of 20 ng/ml. Finally, on day 5 post-plating, the cells were harvested and a fluorescence assay performed to detect GFP expression levels.

[2] = tested on: undifferentiated macrophages; test: Viable cell count of undifferentiated bone marrow macrophages; assay type: cell-based, mouse; settings: 100 nM, 72 hours; sample approximately 70,000 per ml
Protocol: (§1) Primary bone marrow cells were collected from male C57BL/6J (The Jackson Laboratory, Bar Harbor, Me.). Mouse bone marrow macrophages were differentiated in vitro from the primary bone marrow cells by culturing in Dulbecco's minimal essential medium (DMEM) with 10% FBS and 30 ng/ml murine M-CSF (colony stimulating factor) for 6 days. At day 7, macrophages were plated into 12-well plates and cultured in DMEM (10% FBS) with (i) IL-4 peptide (20 ng/mL), (ii) INF-γ (10 ng/mL), or (iii) neither IL-4 nor INF-γ for 24 hours. After 24 hours, the media was replaced with pure DMEM and the cells were cultured for an additional 48 hours. The resulting macrophages were (i) M2-polarized, (ii) M1-polarized, or (iii) undifferentiated, respectively.
(§2) A macrophage sample containing approximately 70,000 […] macrophages per ml was incubated for 72 hours with 100 nM RP-182 (SEQ ID NO: 121). […] Thus, the RP-182 had little effect on the viability of M1 macrophages.

M1-polarized macrophages = test: Viable cell count of M1-polarized bone marrow macrophages; assay type: cell-based, mouse; settings: 100 nM, 72 hours
Protocol: as §1, §2

M2-polarized macrophages = test: Viable cell count of M2-polarized bone marrow macrophages; assay type: cell-based, mouse; settings: 100 nM, 72 hours
Protocol: as §1, §2

PD-1 = PD-1 staining of tumors in transgenic p53/KRAS mice; assay type: in vivo, mouse; settings: 10 mg/kg daily subcu for one week, vs vehicle
Protocol: (§3) In one experiment, tumors in transgenic p53/KRAS mice were allowed to grow to approximately […] in volume, and the animals were then treated daily subcu for one week with either vehicle only, or 10 mg/kg RP-182, following which the animals were sacrificed and the tumors resected, formalin-fixed, and stained with antibodies to PD-1 (FIG. 19), PD-L1 and PD-L2 (FIG. 20).

PD-L1 = PD-L1 staining of tumors in transgenic p53/KRAS mice; assay type: in vivo, mouse; settings: 10 mg/kg daily subcu for one week, vs vehicle
Protocol: as §3

PD-L2 = PD-L2 staining of tumors in transgenic p53/KRAS mice; assay type: in vivo, mouse; settings: 10 mg/kg daily subcu for one week, vs vehicle
Protocol: as §3

[3] = tested on: human triple-negative breast cancer cells (MDA-MB-231); test: Tumor volume, MDA-MB-231 triple-negative breast cancer in nude mice, combination with Gemcitabine; assay type: in vivo, mouse; settings: Gemcitabine+RP-182 cohort, from day 32
Protocol: To test this theory, cohorts of immunocompromised (“nude”) mice were injected with ˜5×10^6 human triple-negative breast cancer cells (MDA-MB-231) under the upper left teat. Following this administration, one cohort received only vehicle; two of the cohorts received the chemotherapeutic agent Gemcitabine, at a q4d dose of 40 mg/kg of body weight. One of these cohorts also received RP-182 (SEQ ID NO: 121) at a daily dose of 5 mg/kg body weight; and a fourth cohort received only RP-182 at a daily dose of 5 mg/kg body weight. Beginning on day 32 of the study, in the Gemcitabine+RP-182 cohort, concentrations of RP-182 were increased to 20 mg/kg body weight. Tumor volume was assessed at various time points following initial cell administration (FIG. 21). After 50 days, the mice were sacrificed.

FAKKFAKKF [RP-397, FAKKFAKKF]
Body Weight After ([1]; after treatment): 30.1 g | Body Weight Before ([1]; before treatment): 25.1 g

FAKKFAKKFK [RP-398]
NF-kB expression reduced relative to control cells (NF-kB): approximately 58%

FFKKFFKKFK [RP-185]
NF-kB expression reduced relative to control cells (NF-kB): approximately 58%

KFRKAFKRFF [RP-182]
viable cell count, undifferentiated macrophages [2]: 68,000 cells per ml | viable cell count, M1-polarized macrophages (M1-polarized macrophages): 68,000 cells per ml | viable cell count, M2-polarized macrophages (M2-polarized macrophages): 20,000 cells per ml | PD-1 expression in tumor (PD-1): significantly downregulated; also recorded: reduced | PD-L1 expression in tumor (PD-L1): significantly downregulated; also recorded: reduced | PD-L2 expression in tumor (PD-L2): significantly downregulated; also recorded: reduced | increase in tumor volume after RP-182 raised to 20 mg/kg [3]: essentially halted
